Assay results from US8598157B2, “5-alkynyl-pyridines” (Boehringer Ingelheim International GmbH, priority 2011, dated 2013).

Legend:
[1] = tested on: MCF7 cells; assay: alamarBlue MCF7 cell assay (antiproliferative/cytotoxicity); assay type: cell-based; conditions: MCF7 human breast cancer cell line
How it was run: (§1)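 Readout is alamarBlue reduction by metabolically active cells, measured fluorometrically (excitation 530-560 nm, emission 590 nm) after 8 h at 37 °C. Compounds are applied for 5-6 days from a top final concentration of 10 μM in 1:3 steps, tested in duplicate. EC50 is derived from blank-corrected signals.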

[2] = tested on: U87 cells; assay: U87 cell assay (antiproliferative/cytotoxicity); assay type: cell-based; conditions: U-87MG human glioblastoma cells
How it was run: as §1

[3] = tested on: H460 cells; assay: alamarBlue H460 cell assay (antiproliferative/cytotoxicity); assay type: cell-based; conditions: NCI-H460; H460 human lung carcinoma cells
How it was run: as §1

[4] = tested on: BT474 cells; assay: alamarBlue BT474 cell assay (antiproliferative/cytotoxicity); assay type: cell-based; conditions: BT-474 human breast cancer cell line
How it was run: as §1

[5] = tested on: MB453 cells; assay: alamarBlue MB453 cell assay (antiproliferative/cytotoxicity); assay type: cell-based; conditions: Homo sapiens; MDA MB 453 breast cancer cell line
How it was run: as §1

[6] = target: PI3Kalpha (Homo sapiens (Human), UniProt P42336); assay: Inhibition of PI3Kalpha-induced PIP-2 phosphorylation (filter-binding assay); assay type: biochemical; conditions: 33P-ATP, p85alpha/His-p110alpha, read-out: IC50 PI3Kα
How it was run: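 Radiometric filter-binding assay: PI3Kα (25 ng/well) preincubated 20 min at room temperature with compound and PIP2-containing lipid vesicles plus phosphotyrosine PDGFRβ peptide. Reaction started with cold ATP (1 μM final) and [33P]-ATP and run 120 min at room temperature; filter-captured radioactivity counted, IC50 from duplicate dilution series.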

Sequence of PI3Kalpha (P42336 whole entry): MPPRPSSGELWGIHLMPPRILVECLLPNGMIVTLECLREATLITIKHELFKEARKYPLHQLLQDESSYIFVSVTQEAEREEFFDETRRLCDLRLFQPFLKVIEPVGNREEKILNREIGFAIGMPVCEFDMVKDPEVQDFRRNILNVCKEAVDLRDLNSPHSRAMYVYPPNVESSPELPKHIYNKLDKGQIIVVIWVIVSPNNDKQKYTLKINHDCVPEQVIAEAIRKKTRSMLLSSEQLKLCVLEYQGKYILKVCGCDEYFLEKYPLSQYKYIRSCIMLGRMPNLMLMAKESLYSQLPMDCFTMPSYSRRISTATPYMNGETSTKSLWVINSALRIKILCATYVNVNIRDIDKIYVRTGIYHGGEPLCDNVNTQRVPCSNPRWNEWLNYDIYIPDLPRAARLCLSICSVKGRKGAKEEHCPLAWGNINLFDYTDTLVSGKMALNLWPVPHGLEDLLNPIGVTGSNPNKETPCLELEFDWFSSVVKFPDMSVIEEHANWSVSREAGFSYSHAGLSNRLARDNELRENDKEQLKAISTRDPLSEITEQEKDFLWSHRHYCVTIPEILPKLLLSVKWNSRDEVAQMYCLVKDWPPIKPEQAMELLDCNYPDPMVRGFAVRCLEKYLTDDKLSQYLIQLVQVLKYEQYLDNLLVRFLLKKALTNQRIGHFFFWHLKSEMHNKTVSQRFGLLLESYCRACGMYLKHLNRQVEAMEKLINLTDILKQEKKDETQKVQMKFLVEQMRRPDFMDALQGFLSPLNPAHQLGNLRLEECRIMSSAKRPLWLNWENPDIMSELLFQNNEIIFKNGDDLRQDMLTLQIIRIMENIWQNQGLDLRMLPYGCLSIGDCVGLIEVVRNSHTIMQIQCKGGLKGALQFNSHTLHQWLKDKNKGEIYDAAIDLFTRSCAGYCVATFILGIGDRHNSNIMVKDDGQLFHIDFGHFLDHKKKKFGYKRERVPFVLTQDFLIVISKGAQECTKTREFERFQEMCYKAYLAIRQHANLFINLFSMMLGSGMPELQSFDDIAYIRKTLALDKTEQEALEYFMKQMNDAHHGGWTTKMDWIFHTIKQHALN

`CCc1ncnc(N2CCN(S(C)(=O)=O)CC2)c1C#Cc1cnc(C)c(NS(=O)(=O)c2ccc(F)cc2)c1` [Example I-67, N-{5-[4-Ethyl-6-(4-methanesulfonyl-piperazin-l-yl)-pyrimidin-5-ylethynyl]-2-methyl-pyridin-3-yl}-4-fluoro-benzenesulfonamide] was tested, and the EC50 [1] was 9 nM, the EC50 [2] was 471 nM and the EC50 [3] was 37 nM. It also gave an EC50 [4] of 44 nM, an EC50 [5] of 54 nM and an IC50 [6] of 0.14 nM.
Work on `COc1ncc(C#Cc2c(C)ncnc2N2CCOCC2)cc1NS(=O)(=O)c1ccccc1` [Example I-1, N-[2-Methoxy-5-(4-methyl-6-morpholin-4-yl-pyrimidin-5-ylethynyl)-pyridin-3-yl]-benzenesulfonamide] yielded an EC50 [1] of 4 nM, an EC50 [2] of 55 nM and an EC50 [3] of 19 nM. For the same compound, the EC50 [4] was 14 nM, the EC50 [5] was 47 nM and the IC50 [6] was 0.4 nM.
`Cc1ncc(C#Cc2c(C)ncnc2N2CCCCC2)cc1NS(=O)(=O)c1ccccc1` [Example I-63, N-[2-Methyl-5-(4-methyl-6-piperidin-1-yl-pyrimidin-5-ylethynyl)-pyridin-3-yl]-benzenesulfonamide] showed an EC50 [1] of 126 nM, an EC50 [2] of 1300 nM and an EC50 [3] of 308 nM. For the same compound, the EC50 [4] was 4320 nM, the EC50 [5] was 1330 nM and the IC50 [6] was 3 nM.
`Cc1ncc(C#Cc2c(C)ncnc2N2CCOCC2)cc1NS(=O)(=O)c1cn(C)c(C)n1` [Example I-55, 1,2-Dimethyl-1H-imidazole-4-sulfonic acid [2-methyl-5-(4-methyl-6-morpholin-4-yl-pyrimidin-5-ylethynyl)-pyridin-3-yl]-amide] showed an EC50 [1] of 208 nM, an EC50 [2] of 1980 nM and an EC50 [3] of 1180 nM. The EC50 [4] was 1550 nM, the EC50 [5] was 1680 nM and the IC50 [6] was 1 nM.
For `Cc1ncc(C#Cc2c(C)ncnc2N2CCOCC2)cc1NS(=O)(=O)c1c(C)noc1C` [Example I-53, 3,5-Dimethyl-isoxazole-4-sulfonic acid [2-methyl-5-(4-methyl-6-morpholin-4-yl-pyrimidin-5-ylethynyl)-pyridin-3-yl]-amide], the EC50 [1] was 135 nM, the EC50 [2] was 1280 nM and the EC50 [3] was 793 nM. The EC50 [4] was 884 nM, the EC50 [5] was 915 nM and the IC50 [6] was 2 nM.
In the case of `CCc1ncnc(N2CCC(O)CC2)c1C#Cc1cnc(C)c(NS(=O)(=O)c2ccc(F)cc2)c1` [Example I-66, N-{5-[4-Ethyl-6-(4-hydroxy-piperidin-1-yl)-pyrimidin-5-ylethynyl]-2-methyl-pyridin-3-yl}-4-fluoro-benzenesulfonamide], the EC50 [1] is reported as 145 nM, the EC50 [2] is reported as 540 nM and the EC50 [3] is reported as 444 nM. The EC50 [4] was 91 nM, the EC50 [5] was 175 nM and the IC50 [6] was 0.48 nM.
`Cc1ncnc(N2CCOCC2)c1C#Cc1cncc(NS(=O)(=O)c2ccccc2)c1` [Example I-19, N-[5-(4-Methyl-6-morpholin-4-yl-pyrimidin-5-ylethynyl)-pyridin-3-yl]-benzenesulfonamide] showed an EC50 [1] of 56 nM, an EC50 [2] of 707 nM and an EC50 [3] of 319 nM. It also gave an EC50 [4] of 373 nM, an EC50 [5] of 387 nM and an IC50 [6] of 0.46 nM.
